Laboratory results as given in ChEMBL document CHEMBL1146928, “Semisynthesis of C-ring modified triptolide analogues and their cytotoxic activities” (Bioorg Med Chem Lett, 2006).
Values after ≈ are worked out from the molar mass of the structure shown.

Assays:
A549 = experiment: Cytotoxicity against human A549 lung tumor cells; type: functional, cell-based
HT-29 = experiment: Cytotoxicity against human HT29 colon tumor cells; type: functional, cell-based

SMILES	IC50 (A549)	IC50 (HT-29)
CC(C)[C@]12O[C@H]1[C@@H]1O[C@]13[C@]1(O[C@H]1C[C@H]1C4=C(CC[C@@]13C)C(=O)OC4)[C@@H]2OC(=S)n1ccnc1	0.024 µg/mL (≈ 0.051 µM)	0.004 µg/mL (≈ 0.0085 µM)
CC(C)[C@]12O[C@H]1[C@]13O[C@H]1C[C@H]1C4=C(CC[C@]1(C)[C@@]31O[C@H]1[C@H]2O)C(=O)OC4	> 10 µg/mL	> 10 µg/mL
CC(C)[C@]12O[C@H]1[C@]13O[C@H]1C[C@H]1C4=C(CC[C@]1(C)[C@@]31O[C@H]1[C@@H]2O)C(=O)OC4	0.27 µg/mL (≈ 0.749 µM)	0.15 µg/mL (≈ 0.416 µM)
CC(C)[C@]12O[C@H]1[C@@H]1O[C@@]13[C@@]1(C)CCC4=C(COC4=O)[C@@H]1C[C@@H]1O[C@@]13C2=O [TRIPTONIDE]		< 0.00046 µg/mL
CC(C)C1=C[C@]23O[C@H]2C[C@H]2C4=C(CC[C@]2(C)[C@@]32O[C@H]2C1=O)C(=O)OC4	1.2 µg/mL (≈ 3.5 µM)	0.67 µg/mL (≈ 1.96 µM)
CC(C)[C@]12O[C@H]1[C@@H]1O[C@]13[C@]1(O[C@H]1C[C@H]1C4=C(CC[C@@]13C)C(=O)OC4)[C@H]2OC(=S)n1ccnc1	5 µg/mL (≈ 10.6 µM)	0.88 µg/mL (≈ 1.87 µM)
CC(C)[C@]12O[C@H]1[C@]13O[C@H]1C[C@H]1C4=C(CC[C@]1(C)[C@@]31O[C@H]1C2=O)C(=O)OC4	0.85 µg/mL (≈ 2.37 µM)	0.7 µg/mL (≈ 1.95 µM)
